The record followed here is patent publication US11452716B2, “Pharmaceutical composition and use thereof” (Ascentage Pharma (Suzhou) Co., Ltd., priority 2018, dated 2022).

Each structure is given as a SMILES string. Several values for one entry are separate records, joined by “and”; a condition that tells them apart may be missing. Equal entries are not always repeated.

In experiment [1] the test system is liposarcoma patient-derived xenograft (LP-19-0029 PDX). Put plainly: Antitumor activity in subcutaneous liposarcoma patient-derived xenograft (LP-19-0029 PDX) model. The experiment is classed as in vivo, Balb/c nude mice. The note with it: for RTV @D 22 / T/C(%) @D 22: day 22, Compound C 40 mg/kg p.o. q.2d x 3w, Palbociclib 50 mg/kg p.o. q.d x 3w, Ribociclib 75 mg/kg p.o. q.d x 3w; for T/C (%) @D 21 / RTV @D 21: Embodiment 2, day 21, Compound C 80 mg/kg p.o. Q2D x 16D, Palbociclib 50 mg/kg p.o. QD x 3W; for RTV @D 21: mean ± SEM, n=5. The text has this:
Animals: Balb/c nude, female, 6-8 weeks, weighing approximately 18-22 g. A total of 40 (20 plus 100%) will be needed for the study, which will be purchased from Shanghai SLAC Laboratory Animal Co., LTD. Generation of the subcutaneous liposarcoma patient-derived xenograft (LP-19-0029 PDX) Model: The LP-19-0029 PDX model was originally established from a surgically resected clinical sample (cancer type: liposarcoma; pathology diagnosis: dedifferentiated liposarcoma), and implanted in nude mice defined as passage 0 (P0). The next passage implanted from P0 tumor was defined as passage 1 (P1), and so on during continual implantation in mice. The frozen tumor fragments will be revived in NOD SCID mice, when the tumors develop to suitable size, they will be passaged to Balb/c nude mice. The P4-P7 tumors will be used for the study. Each mouse was implanted subcutaneously at the right flank with the LP-19-0029 P4 tumor slices (about 30 mm^3) for tumor development. Treatments were started when the average tumor size reached approximately 150 mm^3. The animals were assigned into groups using an Excel-based randomization software performing stratified randomization based upon their tumor volumes. Each group consisted of 5 tumor-bearing mice. [table] Tumor volumes were measured twice weekly in two dimensions using a caliper, and the volume was expressed in mm^3 using the formula: Tumor Volume(mm^3)=0.5a×b^2 where a and b are the long and short diameters of the tumor, respectively. Relative tumor volume (RTV) was calculated using the following formula: RTV=Vt/Vl where Vl and Vt are the average tumor volumes on the first day of treatment (day 1) and the average tumor volumes on a certain time point (day t). Synergy score was calculated using the following formula described in Clarke R. Issues in experimental design and endpoint analysis in the study of experimental cytotoxic agents in vivo in breast cancer and other models[J]. Breast Cancer Research & Treatment, 1997, 46(2-3):255-278, which is incorporated by reference in its entirety: Synergy score=(([…]); where A is RTV value of drug A; B is RTV value of drug B; C is RTV value of vehicle control. AB is RTV value of combination treatment with A and B. Synergy scores: >1 represents synergistic, =1 represents additive, <1 represents antagonistic (referring to Gould S E et al. Translational value of mouse models in oncology drug development. Nature medicine. 2015 21, 431-439). Standard NCI procedures were used to calculate tumor parameters. Percent tumor growth inhibition (% T/C) was calculated as the mean RTV of treated tumors (T) divided by the mean RTV of control tumors (C)×100%. The percentage T/C value is an indication of antitumor effectiveness: a value of T/C<42% is considered significant antitumor activity by the NCI. A T/C value<10% is considered to indicate highly significant antitumor activity, and is the level used by the NCI to justify a clinical trial if toxicity and certain other requirements are met (termed DN-2 level activity). A body weight loss nadir (mean of group) of greater than 20%, or greater than 20% of drug deaths are considered to indicate an excessively toxic dosage. Summary statistics, including mean and the standard error of the mean (SEM), are provided for the tumor volume of each group at each time point. Statistical analysis of difference in the tumor volume among the groups were conducted on the data obtained at the best therapeutic time point after the final dose. A one-way ANOVA was performed to compare the tumor volume and the tumor weight among groups, and when a significant F-statistics (a ratio of treatment variance to the error variance) was obtained, comparisons between groups were carried out with Games-Howell test. All data were analyzed using SPSS 17.0. p<0.05 is considered to be statistically significant. […]

For experiment [2], the system named is lung cancer patient-derived xenograft (LU-01-0448 PDX). Put plainly: Antitumor activity in subcutaneous lung cancer patient-derived xenograft (LU-01-0448 PDX) model. The experiment is classed as in vivo, mice. The note with it: Embodiment 4; for mRECIST / Response @ D 33: animals per category, PD progressive disease, SD stable disease, PR partial response; for T/C(%) @ D 33 / RTV @ D 33 / Response @ D 33: day 33; for T/C(%) @ D 33 / RTV @ D 33: Compound C 100 mg/kg p.o. QD x 5 D, Palbociclib 50 mg/kg p.o. QD x 21 D; for RTV @ D 33: n=2. How it is done: Tumor volumes were measured twice weekly in two dimensions using a caliper, and the volume was expressed in mm^3 using the formula: Tumor Volume(mm^3)=0.5a×b^2 Relative tumor volume (RTV) was calculated using the following formula: RTV=Vt/Vl Synergy score=(([…]); where A is RTV value of drug A; B is RTV value of drug B; C is RTV value of vehicle control. AB is RTV value of combination treatment with A and B. Synergy scores: >1 represents synergistic, =1 represents additive, <1 represents antagonistic (referring to Gould S E et al. Translational value of mouse models in oncology drug development. Nature medicine. 2015 21, 431-439). Standard NCI procedures were used to calculate tumor parameters. Percent tumor growth inhibition (% T/C) was calculated as the mean RTV of treated tumors (T) divided by the mean RTV of control tumors (C)×100%. The percentage T/C value is an indication of antitumor effectiveness: a value of T/C<42% is considered significant antitumor activity by the NCI. A T/C value<10% is considered to indicate highly significant antitumor activity, and is the level used by the NCI to justify a clinical trial if toxicity and certain other requirements are met (termed DN-2 level activity). A body weight loss nadir (mean of group) of greater than 20%, or greater than 20% of drug deaths are considered to indicate an excessively toxic dosage. Compound C was further tested in combination with palbociclib in another patient-derived xenograft model (LU-01-0448 PDX model). LU-01-0448 PDX model was a subcutaneous lung cancer patient-derived xenograft model, which was established according to the procedures of LP-19-0029 PDX model in embodiment 2. This experiment was carried out according to Table 4 and the procedures described in embodiment 2. [table]
On the technique in general: In xenograft studies the graft and the host belong to different species.

As for `CN(C)C(=O)c1cc2cnc(Nc3ccc(N4CCNCC4)cn3)nc2n1C1CCCC1` [Ribociclib, ribociclib], in experiment [1] (Embodiment 3), the “RTV @D 22” value amounted to 9.77 ± 1.22 and the “T/C(%) @D 22” value was 71.70%. In addition, the “T/C(%) @D 22” value in experiment [1] (Embodiment 3, listed as ribociclib) stood at 71.7%.
`CCN1[C@@H](C(=O)NC23CCC(C(=O)O)(CC2)CC3)[C@H](c2cccc(Cl)c2F)[C@]2(C(=O)Nc3cc(Cl)ccc32)C12CCCCC2` [Compound C, 4-((3′R,4′S,5′R)-6″-Chloro-4′-(3-chloro-2-fluorophenyl)-1′-ethyl-2″-oxodispiro[cyclohexane-1,2′-pyrrolidine-3′,3″-indoline]-5′-carboxamido)bicyclo[2.2.2]octane-1-carboxylic acid]: in experiment [1], the “T/C (%) @D 21” value is on record as 22.28% and the “RTV @D 21” value stood at 4.83 ± 1.56. Moreover, in experiment [1] (listed as compound C), the “T/C (%) @D 21” value was 22%. In experiment [1] (Embodiment 3, @35, Compound C 40 mg/kg, Palbociclib 50 mg/kg, Ribociclib 75 mg/kg), the “RTV @35” value turned out to be 10.95 ± 1.66. Also, in experiment [1] (Embodiment 3), the “RTV @D 22” value worked out at 5.24 ± 0.61; the “T/C(%) @D 22” value was 38.4% and 38.44%. Besides, in experiment [2], the mRECIST is reported as 2/2 SD, the “T/C(%) @ D 33” value was determined as 41.43%, the “RTV @ D 33” value was 4.85 ± 1.85 and the “Response @ D 33” value is given as 2/2 PD.
With `CC(=O)c1c(C)c2cnc(Nc3ccc(N4CCNCC4)cn3)nc2n(C2CCCC2)c1=O` [Palbociclib, palbociclib], in experiment [1], the “T/C (%) @D 21” value stood at 70% and the “RTV @D 21” value came to 15.19 ± 1.31. Moreover, in experiment [1] (Embodiment 3), the “RTV @D 22” value is on record as 11.36 ± 0.96 and the “T/C(%) @D 22” value amounted to 83.50%. Besides, the “T/C(%) @D 22” value in experiment [1] (Embodiment 3, listed as palbociclib) turned out to be 83.5%. For the same compound, in experiment [2], the mRECIST is on record as 2/2 PD, the “T/C(%) @ D 33” value stood at 35.71%, the “RTV @ D 33” value is 4.18 ± 0.80 and the “Response @ D 33” value is on record as 2/2 PD.
